Activity calls are given as the source filed them. The calls are words filed in the database; no cut-off is given here.

The text below walks through data of ChEMBL document CHEMBL5352416, “Benzo[b]thiophene-2-carboxamides as novel opioid receptor agonists with potent analgesic effect and reduced constipation” (Eur J Med Chem, 2022).

In experiment [1] the test system is Mus musculus. The experiment is described as follows: Induction of motivational effect in C57BL/6 mouse assessed as increase in reward behaviour at 2.5 mg/kg, sc administered for 4 days and measured on day 6 by CPP analysis. Conditions: time 6.0 day. The experiment is classed as functional, organism-based.
Experiment [2] deals with Mus musculus. The experiment in a line: Antinociceptive activity in thermal stimulated C57BL/6 mouse assessed as drug tolerance at 126.4 to 252.8 microg/kg, sc administered twice per day for 5 days and measured immediately by tail flick test. As to conditions: dose 126.4-252.8 µg/kg, time 5.0 day. The experiment is classed as functional, organism-based. (Hot-plate and tail-flick tests time the reaction to a heat stimulus.)

Experiment [3] has as its system Mus musculus. The experiment is described as follows: Antinociceptive activity in thermal stimulated C57BL/6 mouse at 4.4 mg/kg, sc measured at 30 to 180 mins by tail flick test. The experiment is classed as functional, organism-based. As to conditions: time 30-180 min.
For experiment [4], the system named is Mus musculus. The experiment in a line: Antinociceptive activity in CFA-induced mechanical allodynia C57BL/6 mouse model at 4.4 mg/kg, sc administered twice daily pretreated with CFA for 2 days followed by compound addition and measured at 3 to 7 days by von frey test. The experiment is classed as functional, organism-based. As to conditions: time 3-7 day.

The subject of experiment [5] is Mus musculus. The experiment is described as follows: Antinociceptive activity in thermal stimulated C57BL/6 mouse assessed as tail flick latency at 4.4 mg/kg, sc measured at 30 to 60 mins by tail flick test. Conditions: time 30-60 min. The experiment is classed as functional, organism-based.
The target of experiment [6] is T1, Mu-type opioid receptor (Homo sapiens, UniProt P35372). The experiment is described as follows: Agonist activity at human mu opioid receptor expressed in CHO-K1 cells coexpressing Galpha15 assessed as increase in fluorescence of [ca2+]i measured for 1.52 sec by FLIPR calcium assay. The experiment is classed as functional, cell-based.
T1 sequence (P35372 whole entry): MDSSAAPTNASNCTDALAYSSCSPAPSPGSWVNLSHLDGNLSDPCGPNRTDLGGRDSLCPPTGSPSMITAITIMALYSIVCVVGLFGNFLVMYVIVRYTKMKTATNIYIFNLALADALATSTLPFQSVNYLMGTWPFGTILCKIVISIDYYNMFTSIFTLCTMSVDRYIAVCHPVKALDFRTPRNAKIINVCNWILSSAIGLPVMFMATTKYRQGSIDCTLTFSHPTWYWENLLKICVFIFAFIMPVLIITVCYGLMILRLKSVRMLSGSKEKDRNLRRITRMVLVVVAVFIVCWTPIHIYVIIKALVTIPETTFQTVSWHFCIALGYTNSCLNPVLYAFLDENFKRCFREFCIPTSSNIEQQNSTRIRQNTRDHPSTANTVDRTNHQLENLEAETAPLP
Experiment [7] deals with T1, Mu-type opioid receptor. The experiment in a line: Agonist activity at human mu opioid receptor expressed in CHO-K1 cells coexpressing Galpha15 assessed as increase in fluorescence of [ca2+]i by measuring maximum efficacy measured for 1.52 sec by FLIPR calcium assay relative to control. Conditions: filed as agonist. It is filed as functional, cell-based.

Consider `CN1CC[C@]23c4c5ccc(O)c4O[C@H]2[C@@H](O)C=C[C@H]3[C@H]1C5`, for which the outcome in experiment [1], in experiment [2], in experiment [3] and in experiment [5] was Active. Moreover, the result in experiment [4] was inactive.
With `CN(C)C(CNC(=O)c1cc2ccccc2s1)c1ccc(Cl)cc1` (stereo not given), in experiment [6], the half-maximal effective concentration (EC50) (usually the concentration giving half of the maximal effect) was 1260 nM. Moreover, in experiment [7], the Emax (in general, the size of the effect at its maximum, as opposed to the concentration needed) is 112%.
For the compound `CN(C)C(CNC(=O)c1cc2ccccc2s1)c1cccs1` (stereo not given), the concentration for a half-maximal effect (EC50) in experiment [6] is 13.6 nM. Further, the Emax in experiment [7] was 131%.
For `CN(C)C(CNC(=O)c1cc2ccccc2s1)c1cccc(F)c1` (stereo not given), the concentration giving a half-maximal response (EC50) in experiment [6] is 1490 nM. Further, in experiment [7], the Emax stood at 106%.
On to `CN(C)C(CNC(=O)c1cc2ccccc2s1)c1cccc(Cl)c1` (stereo not given), for which, in experiment [6], the EC50 was determined as 2310 nM. Also, the Emax in experiment [7] came out at 130%.
`CN(C)C(CNC(=O)c1sccc1Cl)c1ccccc1Cl` (stereo not given): the EC50 in experiment [6] was 1060 nM. In experiment [7], the maximum response (Emax) came out at 50.7%.
`CN(C)C(CNC(=O)c1cc2ccccc2s1)c1ccc(F)cc1` (stereo not given): the concentration for a half-maximal effect (EC50) in experiment [6] is 6.4 nM. Moreover, the Emax in experiment [7] is 117%.
`CN(C)C(CNC(=O)c1cc2ccccc2s1)C1CCCCC1` (stereo not given): the EC50 in experiment [6] was found to be 11100 nM. Also, the Emax in experiment [7] was determined as 91%.
Regarding `CN(C)C(CNC(=O)c1cc2ccccc2s1)c1ccccc1Cl` (stereo not given), the EC50 in experiment [6] worked out at 3.04 nM. The maximal effect (Emax) in experiment [7] was found to be 66.7%.
Turning to `Cc1ccccc1C(CNC(=O)c1cc2ccccc2s1)N(C)C` (stereo not given), in experiment [6], the half-maximal effective concentration (EC50) came to 6480 nM. Moreover, the maximal effect (Emax) in experiment [7] was 90.8%.
For `Cc1ccc2c(Cl)c(C(=O)NCC(c3ccccc3Cl)N(C)C)sc2c1` (stereo not given), in that order: 2580 nM and 55%.
